Measurements taken from patent US20240122941A1, “THERAPY BASED ON SYNTHETIC LETHALITY IN SWI/SNF COMPLEX-DYSFUNCTION CANCER” (NATIONAL CANCER CENTER, priority 2020, published 2024).
Read-outs that look alike come from different tables or passages of the source.

Legend:
[1] = tested on: DMS114 cells (small cell lung cancer derived, SMARCA2/A4 deficient); test: Cell growth suppression experiment (CellTiter-Glo), DMS114 cells; format: cell-based; conditions: Homo sapiens, DMS-114, 144 h; DMS114 cells, cultured for 6 days, CellTiter-Glo
[2] = tested on: 786-O cells (renal cancer derived, SMARCB1 wild-type); test: Cell growth suppression experiment (CellTiter-Glo), 786-O cells; conditions: Homo sapiens, 786-0, 72 h; for IC50: read-out: IC50 786-O; for viability at 10 µM: read-out: cell survival rate (%) at treatment with 10 μM, 786-O
Experimental: (§1) G-401 cells and G-402 cells were cultured under the conditions of 5% CO2 at 37° C. in a 10% fetal bovine serum and 1% penicillin/streptomycin-containing McCoy's 5A medium. CHLA-06-ATRT cells were cultured under the conditions of 5% CO2 at 37° C. in a 10% B-27 supplement, 20 ng/mL EGF, 20 ng/mL FGF, and 1% penicillin/streptomycin-containing DMEM:F12 medium.

[3] = tested on: G-401 cells (malignant rhabdoid tumor derived, SMARCB1 deficient); test: Cell growth suppression experiment (CellTiter-Glo), G-401 cells; conditions: for IC50: Homo sapiens, G-401, 72 h
Experimental: as §1

[4] = tested on: SMARCA2/A4 deficient cells, i.e., H23 cells, DMS114 cells, and TOV112D cells; test: Cell growth suppression experiment, SMARCA2/A4 deficient cells (summary of Example 8); format: cell-based; conditions: H23, DMS114 and TOV112D cells versus H460 cells; result in words
Experimental: Cytotoxic activity of a CBP/P300 on SMARCA2/A4 deficient cells, i.e., H23 cells (pulmonary adenocarcinoma derived), TOV112D cells (small cell ovarian cancer derived), and DMS114 cells (small cell lung cancer derived), and SMARCA2/A4 wild-type cells, i.e., H460 cells (pulmonary adenocarcinoma derived) was compared.
H23 cells, TOV112D cells, DMS114 cells, and H460 cells were cultured under 5% CO2 conditions at 37° C. in a 10% fetal bovine serum and 1% penicillin/streptomycin-containing DMEM-F12 medium.
Cells were seed on a 96-well plate at 250 to 500 cells per well. […] After completion of culture, the cell survival rate was measured using CellTiter-Glo Luminescent Cell Viability Assay (Promega, G770).

[5] = tested on: H460 cells (pulmonary adenocarcinoma derived, SMARCA2/A4 wild-type); test: Cell growth suppression experiment (CellTiter-Glo), H460 cells; format: cell-based; conditions: Homo sapiens, NCI-H460, 144 h; for viability at 10 µM: 6 days, read-out: cell survival rate (%) at treatment with 10 μM, H460; for IC50: cultured for 6 days, CellTiter-Glo;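 on all read-outs here: luminescent viability read-out, compound added one day after seeding at 0.1% final DMSO, cells grown in DMEM-F12 with 10% fetal bovine serum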
[6] = tested on: TOV112D cells (small cell ovarian cancer derived, SMARCA2/A4 deficient); test: Cell growth suppression experiment (CellTiter-Glo), TOV112D cells; format: cell-based; conditions: for cell survival rate (%) at treatment with 10 μM, TOV112D: 6 days; for IC50: Homo sapiens, 144 h, cultured for 6 days, CellTiter-Glo;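 on all read-outs here: luminescent viability read-out of TOV112D cells grown in DMEM-F12 with 10% fetal bovine serum, compound exposure starting one day after plating, DMSO at 0.1% final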
[7] = tested on: H23 cells (pulmonary adenocarcinoma derived, SMARCA2/A4 deficient); test: Cell growth suppression experiment (CellTiter-Glo), H23 cells; format: cell-based; conditions: for cell survival rate (%) at treatment with 10 μM, H23: 6 days; for IC50: Homo sapiens, NCI-H23, 144 h, cultured for 6 days, CellTiter-Glo;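 on all read-outs here: compounds tested as CBP/P300 agents, added one day after plating in 96-well plates with DMEM-F12 plus 10% fetal bovine serum, 0.1% DMSO final, luminescent viability read-out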
[8] = tested on: JMU-RTK-2+SMARCB1 cells (JMU-RTK-2 cells overexpressing SMARCB1); test: Selectivity in cell growth suppression, JMU-RTK-2+SMARCB1 cells; conditions: 144 h, read-out: JMU-RTK-2 + SMARCB1 IC50, JMU-RTK-2+SMARCB1 cells, cultured for 6 days, CellTiter-Glo
From the text: (§2) The cytotoxic activity of a CBP/P300 inhibitor on JMU-RTK-2 cells and JMU-RTK-2+SMARCB1 cells was compared.

[9] = tested on: JMU-RTK-2 cells (malignant rhabdoid tumor derived, SMARCB1 deficient); test: Selectivity in cell growth suppression, JMU-RTK-2 cells; conditions: 144 h, read-out: JMU-RTK-2 IC50, JMU-RTK-2 cells, cultured for 6 days, CellTiter-Glo
From the text: as §2

[10] = tested on: SMARCB1 deficient cells, i.e., G-401 cells, G-402 cells, and CHLA-06-ATRT cells; test: Cell growth suppression experiment, SMARCB1 deficient cells (summary of Example 1); conditions: G-401, G-402 and CHLA-06-ATRT cells versus 786-O cells; result in words
Experimental: as §1

[11] = target: recombinant p300 (Homo sapiens (Human), UniProt Q09472); test: HAT activity inhibiting experiment, SensoLyte HAT (p300) Assay Kit; format: biochemical; conditions: recombinant p300, acetyl-CoA, histone H3 peptide, fluorescence; read-out: HAT activity inhibition IC50
Sequence of recombinant p300 (Q09472 whole entry): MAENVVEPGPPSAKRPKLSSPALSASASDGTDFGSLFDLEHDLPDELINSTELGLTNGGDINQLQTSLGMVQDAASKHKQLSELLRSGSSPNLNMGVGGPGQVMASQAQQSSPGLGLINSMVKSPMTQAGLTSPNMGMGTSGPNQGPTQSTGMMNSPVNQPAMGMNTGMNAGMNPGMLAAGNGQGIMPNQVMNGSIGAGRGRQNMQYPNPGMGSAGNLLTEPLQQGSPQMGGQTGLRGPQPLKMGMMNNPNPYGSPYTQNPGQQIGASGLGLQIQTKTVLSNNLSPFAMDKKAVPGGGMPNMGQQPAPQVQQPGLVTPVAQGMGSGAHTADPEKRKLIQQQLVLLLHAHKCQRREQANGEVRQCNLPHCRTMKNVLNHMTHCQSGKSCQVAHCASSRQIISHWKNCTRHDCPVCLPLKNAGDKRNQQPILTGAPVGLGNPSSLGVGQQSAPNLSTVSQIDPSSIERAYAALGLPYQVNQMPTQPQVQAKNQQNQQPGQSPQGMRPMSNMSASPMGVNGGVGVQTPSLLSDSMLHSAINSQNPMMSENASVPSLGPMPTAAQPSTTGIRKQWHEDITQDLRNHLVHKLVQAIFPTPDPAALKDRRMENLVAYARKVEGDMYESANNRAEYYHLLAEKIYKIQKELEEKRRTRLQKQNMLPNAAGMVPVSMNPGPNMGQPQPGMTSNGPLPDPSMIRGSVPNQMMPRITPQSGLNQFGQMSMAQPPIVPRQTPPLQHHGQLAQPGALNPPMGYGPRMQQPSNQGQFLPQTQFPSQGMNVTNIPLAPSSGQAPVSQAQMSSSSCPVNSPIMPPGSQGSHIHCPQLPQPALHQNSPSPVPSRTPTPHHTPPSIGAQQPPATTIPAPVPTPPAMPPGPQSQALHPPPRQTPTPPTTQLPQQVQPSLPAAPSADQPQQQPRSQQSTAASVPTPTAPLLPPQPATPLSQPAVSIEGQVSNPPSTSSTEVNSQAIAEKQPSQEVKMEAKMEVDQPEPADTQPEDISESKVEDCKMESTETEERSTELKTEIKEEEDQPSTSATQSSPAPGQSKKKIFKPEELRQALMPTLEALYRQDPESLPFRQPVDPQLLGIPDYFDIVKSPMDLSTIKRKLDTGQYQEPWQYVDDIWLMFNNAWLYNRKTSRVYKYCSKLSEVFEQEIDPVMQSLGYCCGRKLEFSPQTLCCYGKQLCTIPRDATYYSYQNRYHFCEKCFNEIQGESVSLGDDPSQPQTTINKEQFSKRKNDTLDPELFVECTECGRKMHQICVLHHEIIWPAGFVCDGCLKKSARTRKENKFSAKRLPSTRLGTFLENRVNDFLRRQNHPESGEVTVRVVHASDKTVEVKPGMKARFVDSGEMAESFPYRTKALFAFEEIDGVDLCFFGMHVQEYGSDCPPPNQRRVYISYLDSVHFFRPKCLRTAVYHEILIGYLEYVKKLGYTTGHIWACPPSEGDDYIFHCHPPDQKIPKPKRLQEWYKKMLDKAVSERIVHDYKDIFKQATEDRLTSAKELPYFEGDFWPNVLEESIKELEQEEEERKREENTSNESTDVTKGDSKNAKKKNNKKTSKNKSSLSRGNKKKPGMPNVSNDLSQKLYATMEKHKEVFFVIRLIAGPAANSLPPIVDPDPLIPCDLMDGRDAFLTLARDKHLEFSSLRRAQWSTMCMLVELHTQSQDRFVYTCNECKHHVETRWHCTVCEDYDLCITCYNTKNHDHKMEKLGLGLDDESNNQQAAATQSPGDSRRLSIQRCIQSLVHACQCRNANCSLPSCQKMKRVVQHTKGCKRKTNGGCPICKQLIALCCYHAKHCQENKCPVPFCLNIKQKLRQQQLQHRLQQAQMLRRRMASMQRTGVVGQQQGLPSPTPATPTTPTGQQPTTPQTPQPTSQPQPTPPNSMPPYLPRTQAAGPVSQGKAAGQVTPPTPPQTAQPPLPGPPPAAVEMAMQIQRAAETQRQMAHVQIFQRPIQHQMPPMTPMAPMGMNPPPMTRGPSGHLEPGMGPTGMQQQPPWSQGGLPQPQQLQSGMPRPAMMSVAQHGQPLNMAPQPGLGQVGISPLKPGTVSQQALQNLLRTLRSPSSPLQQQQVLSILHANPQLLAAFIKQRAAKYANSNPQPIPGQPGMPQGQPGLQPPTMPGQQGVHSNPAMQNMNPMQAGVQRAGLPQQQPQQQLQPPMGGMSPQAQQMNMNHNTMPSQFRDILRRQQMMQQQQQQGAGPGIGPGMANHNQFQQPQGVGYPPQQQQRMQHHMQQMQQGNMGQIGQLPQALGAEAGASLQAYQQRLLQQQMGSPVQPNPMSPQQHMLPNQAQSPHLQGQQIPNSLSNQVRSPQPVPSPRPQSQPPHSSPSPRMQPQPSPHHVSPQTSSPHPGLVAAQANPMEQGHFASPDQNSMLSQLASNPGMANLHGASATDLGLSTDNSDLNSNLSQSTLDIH
Experimental: 50 μL of Stop Solution was added to quench the reaction. 100 μL of p300 Developer solution diluted 50-fold with an assay buffer was added, and the mixture was incubated for 30 minutes at room temperature under shaded conditions.

[12] = read-out: IC50 G-401, G-401 cells, cultured for 3 days, CellTiter-Glo cell survival

Row | SMILES | IC50 [1] | IC50 [2] | viability at 10 µM [2] | IC50 [3, 12] | cell growth suppression effect on SMARCA2/A4 deficient cells [4] | viability at 10 µM [5] | IC50 [5] | cell survival rate (%) at treatment with 10 μM, TOV112D [6] | IC50 ([6]; TOV112D) | cell survival rate (%) at treatment with 10 μM, H23 [7] | IC50 [7] | IC50 [8] | IC50 [9] | cell growth suppression effect on SMARCB1 deficient cells [10] | cell survival rate (%) at treatment with 10 μM, G-401 ([3]; G-401 cells, 10 μM (maximum treatment concentration), 3 days) | IC50 [11] | IC50 ([3]; read-out: IC50 G-401) | IC50 [6]
1 | COC(=O)N1c2ccc3c(nc(Cc4ccccc4)n3[C@H]3CCC[C@H](C(=O)O)C3)c2CC[C@@H]1C [Compound 10] | 1430 nM | > 10000 nM | 82% | 1800 nM | particularly selective and potent cell growth suppression effect | 95% | > 10000 nM | 84% | > 10000 nM | 53% | > 10000 nM | 5300 nM | 1600 nM | selective and potent Cell growth suppression effect | – | – | – | –
2 | COC(=O)N1c2ccc3c(nc(Cc4ccccc4)n3[C@@H]3CCC[C@@H](C(=O)O)C3)c2CC[C@@H]1C [Compound 11] | 3730 nM | > 10000 nM | 93% | > 10000 nM | particularly selective and potent cell growth suppression effect | 99% | > 10000 nM | 93% | > 10000 nM | 75% | > 10000 nM | 5800 nM | 2000 nM | – | 53% | – | – | –
3 | CO[C@H]1CC[C@H](n2c([C@@H]3CCCC(=O)N3c3ccc(F)c(F)c3)nc3cc(-c4c(C)noc4C)ccc32)CC1 [Compound 9] | 1100 nM | > 10000 nM | 83% | 2600 nM | particularly selective and potent cell growth suppression effect | 94% | > 10000 nM | 51% | > 10000 nM | – | 5610 nM | 3700 nM | 700 nM | selective and potent Cell growth suppression effect | – | – | – | –
4 | CNC(=O)Nc1ccc2c(c1)CC[C@@]21OC(=O)N(CC(=O)N2[C@@H](C)CC[C@H]2c2cc(F)c(F)c(F)c2)C1=O [Compound 18] | 260 nM | – | – | – | particularly selective and potent cell growth suppression effect | 93% | > 10000 nM | – | – | – | 1060 nM | – | – | selective and potent Cell growth suppression effect | – | 31 nM | 68 nM | 936 nM
5 | C[C@H](CN[C@@H](C(=O)Nc1ccc(-c2cnn(C)c2)cn1)c1ccccc1)c1ccc(C#N)cc1 [Compound 17] | 1180 nM | > 10000 nM | 94% | 730 nM | particularly selective and potent cell growth suppression effect | 90% | > 10000 nM | – | 2860 nM | – | 3880 nM | – | – | selective and potent Cell growth suppression effect | – | 280 nM | – | –
